From patent US12570612B2, “Substituted nitrogen heterocyclic compound and anesthetic effect thereof” (priority 2019, dated 2026)
Read-outs that look alike come from different tables or passages of the source.

Experiments:
Sprague-Dawley rats [1] = experiment: animal or person; assay type: in vivo; conditions: rats; for ED50: LORR, up and down method, tail vein, class symbols
Source text: Evaluating indicator: The end point of anesthesia: LORR was used as the end point of anesthesia; General anesthesia effect: the disappearance of forepaw righting reflex in rats lasting for 30 seconds is taken as the index of general anesthesia effect; Anesthesia recovery index: the recovery of rat forepaw righting reflex was used as the index of anesthesia recovery.

SD rats = conditions: for After the infusion is stopped: Righting reflex recovery time / Recovery time after stopping infusion: after 1 hour continuous infusion at 2 times the MIR; for After the infusion is stopped: Righting reflex recovery time / Recovery time after stopping infusion / Sedation onset time: SD rats; for Types and incidence of adverse reactions: Red urine / Types and incidence of adverse reactions: Tongue stretching / Types and incidence of adverse reactions: Tremor: continuous infusion 2 x MIR 1 hour, rats affected/rats; for Sedation onset time: continuous tail vein infusion at 2 times the MIR
Experimental: Experimental Methods: Adult male SD rats with body weight ranging from 250 g to 350 g were selected for continuous infusion test.
Evaluation indexes: the time from the beginning of continuous infusion to the […] of sedation in rats; the time from the cessation of infusion to the restoration of the forepaw turning reflex after 1 hour of continuous infusion; the time from the cessation of infusion to the complete restoration of rats after 1 hour of continuous infusion.

Sprague-Dawley rats [2] = assay type: in vivo; conditions: tail vein
Sprague-Dawley rats [3] = experiment: Pharmacological effect and adverse reactions under the equivalent dose (2ED50), Group C compounds; assay type: in vivo; conditions: for Righting reflex duration / Sedation duration / Onset time: 2ED50, tail vein, rats, n=8; for Adverse reaction: Convulsions / Adverse reaction: Cough, broken-winded / Adverse reaction: Euphoria / Adverse reaction: Red urine / Adverse reaction: Slower breathing, Tetany convulsion / Adverse reaction: Systemic stiffness, Convulsions, Opisthotonus / Adverse reaction: Tongue stretching / Adverse reaction: Tremor / Adverse reaction: the four limbs rigidity: equivalent dose (2ED50), number of rats of n = 8
Source text: Evaluation index: onset time: from the completion of drug injection to the disappearance of forepaw righting reflex in rats; Duration of anesthesia: the time from the disappearance of rat forepaw righting reflex to the recovery of rat forepaw righting reflex; Recovery time of anesthesia: the time from the […] to complete recovery;

[4] = Rattus norvegicus, read-out: ED50

Row | SMILES | ED50 (Sprague-Dawley rats [1]; [4]) | Approximate therapeutic index (Sprague-Dawley rats [1]) | After the infusion is stopped: Righting reflex recovery time (SD rats) | Recovery time after stopping infusion (SD rats) | Types and incidence of adverse reactions: Red urine (SD rats) | Types and incidence of adverse reactions: Tremor (SD rats) | Sedation onset time (SD rats) | Minimal lethal dose (Sprague-Dawley rats [2]) | Righting reflex duration (Sprague-Dawley rats [3]) | Sedation duration (Sprague-Dawley rats [3]) | Onset time (Sprague-Dawley rats [3]; unit s) | Adverse reaction: Convulsions (Sprague-Dawley rats [3]) | Adverse reaction: Cough, broken-winded (Sprague-Dawley rats [3]) | Adverse reaction: Euphoria (Sprague-Dawley rats [3]) | Adverse reaction: Red urine (Sprague-Dawley rats [3]) | Adverse reaction: Slower breathing, Tetany convulsion (Sprague-Dawley rats [3]) | Adverse reaction: Systemic stiffness, Convulsions, Opisthotonus (Sprague-Dawley rats [3]) | Adverse reaction: Tongue stretching (Sprague-Dawley rats [3]) | Adverse reaction: Tremor (Sprague-Dawley rats [3]) | Adverse reaction: the four limbs rigidity (Sprague-Dawley rats [3]) | also measured
1 | CCOCC(=O)c1cncn1[C@H](C)c1ccccc1 [Compound C34] | 2 to 10 mg/kg | >2.6 | 15 to 20 min | 22 to 28 min | 6/6 | 2/6 | <5 min | >12.8 mg/kg | 2.26 ± 0.81 min | 4.89 ± 0.98 min | <30 s | 0 | 0 | 1 | 8 | 0 | 6 | 1 | 0 | 0 | Types and incidence of adverse reactions: Tongue stretching (SD rats): Tongue stretching(4/6)
2 | C[C@H](c1ccccc1)n1cncc1C(=O)COCCC1CCC1 [Compound C40] | 0.5 to 1 mg/kg | >13.8 | 16 to 20 min | 27 to 35 min | 6/6 | 2/6 | <5 min | >8.3 mg/kg | 3.76 ± 1.75 min | 10.48 ± 2.58 min | <30 s | 1 | 0 | 0 | 8 | 1 | 1 | 0 | 0 | 0 | –
3 | C[C@H](c1ccccc1)n1cnc(F)c1C(=O)COCC1CCC1 [Compound C70] | – | >18.2 | – | – | – | – | – | >6.4 mg/kg | 1.35 ± 0.61 min | 5.30 ± 1.14 min | <30 s | 0 | 0 | 4 | 8 | 0 | 0 | 0 | 0 | 6 | ED50 (Sprague-Dawley rats [1]): + (+ indicates that the measured ED50 is in the range of 0.04-0.50 mg/kg (including 0.04 and 0.50 mg/kg))
4 | COCC(=O)c1c(F)ncn1[C@H](C)c1ccccc1 [Compound C71] | – | >8.0 | – | – | – | – | – | >6.6 mg/kg | 2.00 ± 0.81 min | 5.11 ± 1.64 min | <30 s | 2 | 0 | 0 | 8 | 0 | 0 | 0 | 1 | 1 | ED50 (Sprague-Dawley rats [1]): ++ (++ means that the measured ED50 is in the range of 0.50-1.00 mg/kg (excluding 0.50 mg/kg, including 1.00 mg/kg))
5 | CCOCC(=O)c1c(F)ncn1[C@H](C)c1ccccc1 [Compound C72] | 0.04 to 0.5 mg/kg | >27.7 | – | – | – | – | – | >8.9 mg/kg | 1.29 ± 0.64 min | 5.70 ± 1.51 min | – | 0 | 0 | 0 | 8 | 0 | 0 | 0 | 0 | 0 | Onset time (Sprague-Dawley rats [3]; unit min): <60 s
6 | C#CCOCC(=O)c1c(F)ncn1[C@H](C)c1ccccc1 [Compound C73] | 0.04 to 0.5 mg/kg | >23.4 | – | – | – | – | – | >4.0 mg/kg | 1.24 ± 0.56 min | 6.76 ± 1.49 min | <30 s | 0 | 0 | 0 | 8 | 0 | 2 | 0 | 0 | 1 | –
7 | C[C@H](c1ccccc1)n1cnc(F)c1C(=O)COCCC1CCC1 [Compound C74] | 0.04 to 0.5 mg/kg | >42.9 | 13 to 18 min | 18 to 24 min | 6/6 | 4/6 | <5 min | >6.0 mg/kg | 1.37 ± 0.63 min | 5.68 ± 1.10 min | – | 0 | 0 | 0 | 8 | 0 | 0 | 0 | 1 | 0 | Types and incidence of adverse reactions: Tongue stretching (SD rats): Tongue stretching(4/6); Onset time (Sprague-Dawley rats [3]; unit min): <60 s
8 | C[C@H](c1ccccc1)n1cnc(F)c1C(=O)COCC1CC1 [Compound C76] | – | >21.9 | – | – | – | – | – | >15.6 mg/kg | 1.72 ± 0.61 min | 4.32 ± 0.96 min | <30 s | 0 | 0 | 0 | 8 | 0 | 0 | 0 | 1 | 1 | ED50 (Sprague-Dawley rats [1]): ++ (++ means that the measured ED50 is in the range of 0.50-1.00 mg/kg (excluding 0.50 mg/kg, including 1.00 mg/kg))
9 | CCC(CC)OCC(=O)c1c(F)ncn1[C@H](C)c1ccccc1 [Compound C78] | 0.5 to 1 mg/kg | >14.3 | – | – | – | – | – | >11.5 mg/kg | 2.59 ± 0.99 min | 7.30 ± 1.85 min | <30 s | 0 | 0 | 0 | 8 | 0 | 0 | 1 | 0 | 1 | –
